According to patent publication US20160185797A1, “ALKYNYL ALCOHOLS AND METHODS OF USE” (Genentech, Inc., priority 2013, published 2016):

Assays:
[1] = tested on: REL-A (p65) nuclear translocation in HeLa cells; test: REL-A (p65) nuclear translocation assay in HeLa cells, TNF-α stimulated (classical NF-kB signaling), high content imaging; assay type: cell-based; conditions: Homo sapiens, HeLa, compound 4.5 h, then 10 ng/mL TNF-α for 30 minutes, read-out: REL-A HeLa Transloc Assay (IC50)
Experimental: (§1) Several assays were developed to profile the cellular activities of NIK inhibitors.
(§2) (2) A second set of cell assay are used to define the selectivity of NIK inhibitors toward inhibition of classical vs. non-classical NF-kB signaling and rely on quantification of the nuclear translocation of p52 (NF-kB2) and REL-A (p65) using high content cellular imaging. For the p52 (non-classical NF-kB signaling) nuclear translocation assay, HeLa cells are treated with different concentrations of compounds (0.2% DMSO final) in medium containing 10% fetal bovine serum and then stimulated with 100 ng/mL of an anti-lymphotoxin beta receptor antibody (R&D Systems) for 5 hours. In the REL-A nuclear translocation assay, HeLa cells are incubated with compounds (0.2% DMSO final) for 4.5 hours in medium containing 10% fetal bovine serum before stimulating them with 10 ng/mL tumor necrosis factor (TNF)-α (R&D Systems) for 30 minutes. Cells are fixed with 4% paraformaldehyde, permeabilized by adding 0.1% Triton X-100 in phosphate buffered saline, and then are incubated with either 2 ug/mL anti-p52 antibody (Millipore) or 400 ng/mL anti-REL-A (p65) antibody (Santa Cruz Biotechnology). Finally, the cells are incubated with an Alexa488-labeled secondary antibody (Invitrogen) and DRAQ5 DNA stain (Biostatus). Imaging is carried out using an Opera reader (Perkin Elmer) and data are analyzed with the aid of Acapella software (Perkin Elmer). The p52 or REL-Atranslocation into the nucleus is quantified by the ratio of the nuclear to cytoplasmic signal intensity. […] The compounds in listed in Table 1 have the corresponding inhibitory value (IC50 in micromolar) for NIK p52 Translocation Assay as set forth in Table 2.
(§3) The compounds in listed in Table 1 have the corresponding inhibitory values (IC50 in micromolar) for the Translocation Assays as set forth in Table 2.

[2] = molecular target: T1, nuclear factor-kappa B (NF-kB)-inducing kinase (NIK) (Homo sapiens, UniProt Q99558); test: NIK enzyme inhibition assay (Transcreener ADP fluorescence polarization, NIK ADP-FP); assay type: biochemical
T1 construct: made in house; host or cells: baculovirus-infected insect cells

[3] = tested on: p52 (NF-kB2) nuclear translocation in HeLa cells; test: p52 (NF-kB2) nuclear translocation assay in HeLa cells, anti-lymphotoxin beta receptor antibody stimulated (non-classical NF-kB signaling), high content imaging; assay type: cell-based; conditions: Homo sapiens, 100 ng/mL anti-lymphotoxin beta receptor antibody for 5 hours, read-out: p52 HeLa Transloc Assay (IC50)
Experimental: as §1, §2, §3

T1 sequence (Q99558 whole entry): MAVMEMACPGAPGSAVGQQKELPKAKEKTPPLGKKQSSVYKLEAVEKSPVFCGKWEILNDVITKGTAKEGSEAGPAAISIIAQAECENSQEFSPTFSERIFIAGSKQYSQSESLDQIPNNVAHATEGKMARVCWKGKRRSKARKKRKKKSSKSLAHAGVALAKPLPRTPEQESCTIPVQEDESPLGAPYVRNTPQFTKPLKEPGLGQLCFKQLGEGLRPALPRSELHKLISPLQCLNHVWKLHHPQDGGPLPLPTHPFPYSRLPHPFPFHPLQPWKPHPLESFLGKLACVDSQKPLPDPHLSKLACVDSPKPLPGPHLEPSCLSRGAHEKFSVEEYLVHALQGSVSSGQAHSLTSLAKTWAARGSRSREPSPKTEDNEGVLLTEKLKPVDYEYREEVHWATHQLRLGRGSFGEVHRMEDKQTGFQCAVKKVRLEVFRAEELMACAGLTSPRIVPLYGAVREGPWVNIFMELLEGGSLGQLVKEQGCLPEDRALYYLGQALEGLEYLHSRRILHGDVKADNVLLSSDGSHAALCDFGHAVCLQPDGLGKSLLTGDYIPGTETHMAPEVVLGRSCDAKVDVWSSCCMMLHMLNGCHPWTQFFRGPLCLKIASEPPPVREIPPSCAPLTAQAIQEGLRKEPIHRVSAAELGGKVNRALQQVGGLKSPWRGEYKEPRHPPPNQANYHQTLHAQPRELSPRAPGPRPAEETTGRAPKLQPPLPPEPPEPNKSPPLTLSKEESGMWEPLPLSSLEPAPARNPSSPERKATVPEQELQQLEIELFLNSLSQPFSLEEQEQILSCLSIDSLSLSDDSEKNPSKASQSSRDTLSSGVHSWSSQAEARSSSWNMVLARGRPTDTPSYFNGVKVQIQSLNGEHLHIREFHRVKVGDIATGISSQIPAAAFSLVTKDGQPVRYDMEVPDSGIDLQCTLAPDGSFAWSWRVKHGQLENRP

`CN1CC[C@@](O)(C#Cc2cccc(-c3nc(N[C@@H]4CCOC4)cc(C(N)=O)n3)c2)C1=O` [Example 31, 2-[3-[2-[(3R)-3-hydroxy-1-methyl-2-oxo-pyrrolidin-3-yl]ethynyl]phenyl]-6-[[(3R)-tetrahydrofuran-3-yl]amino] pyrimidine-4-carboxamide] was tested, and the IC50 [1] was greater than 20000 nM, the Ki [2] was 0.93 nM and the IC50 [3] was 479 nM.
Compound `Cc1cc(C(N)=O)nc(-c2cccc(C#C[C@]3(O)CCN(C)C3=O)c2)c1F` [Example 151, 5-fluoro-6-[3-[2-[(3R)-3-hydroxy-l-methyl-2-oxo-pyrrolidin-3-yl]ethynyl]phenyl]-4-methyl-pyridine-2-carboxamide] has an IC50 [1] greater than 2000 nM, a Ki [2] of 0.67 nM and an IC50 [3] of 396 nM.
Compound `Cc1cc(-c2cccc(C#C[C@]3(O)CCN(C)C3=O)c2)nc(C(N)=O)c1N` [Example 170, 3-amino-6-[3-[2-[(3R)-3-hydroxy-l-methyl-2-oxo-pyrrolidin-3-yl]ethynyl]phenyl]-4-methyl-pyridine-2-carboxamide] has an IC50 [1] greater than 2000 nM, a Ki [2] of less than 0.1 nM and an IC50 [3] of 26 nM.
Compound `CN1CC[C@@](O)(C#Cc2cc(-c3ccc(N)c(C(N)=O)n3)ccc2F)C1=O` [Example 152, 3-amino-6-[4-fluoro-3-[2-[(3R)-3-hydroxy-l-methyl-2-oxo-pyrrolidin-3-yl]ethynyl]phenyl] pyridine-2-carboxamide] has an IC50 [1] greater than 2000 nM, a Ki [2] of less than 0.05 nM and an IC50 [3] of 46 nM.
Work on `CNc1cc(C(N)=O)nc(-c2cccc(C#C[C@]3(O)CCN(C)C3=O)c2)n1` [Example 12, 2-[3-[2-[(3R)-3-hydroxy-1-methyl-2-oxo-pyrrolidin-3-yl]ethynyl]phenyl]-6-(methylamino)pyrimidine-4-carboxamide] yielded an IC50 [1] greater than 20000 nM, a Ki [2] of 0.33 nM and an IC50 [3] of 236 nM.
With `CN1CC[C@@](O)(C#Cc2cccc(-c3ncc(NCC4COC4)c(C(N)=O)n3)c2)C1=O` [Example 100, 2-[3-[2-[(3R)-3-hydroxy-1-methyl-2-oxo-pyrrolidin-3-yl]ethynyl]phenyl]-5-(oxetan-3-ylmethylamino) pyrimidine-4-carboxamide] the IC50 [1] was no less than 20000 nM, the Ki [2] was 0.1 nM and the IC50 [3] was 11.6 nM.
With `COCC1CCCN1c1cc(C(N)=O)nc(-c2cccc(C#C[C@]3(O)CCN(C)C3=O)c2)n1` (stereo partly drawn) [Example 18, 2-[3-[2-[(3R)-3-hydroxy-1-methyl-2-oxo-pyrrolidin-3-yl]ethynyl]phenyl]-6-[2-(methoxymethyl)pyrrolidin-1-yl]pyrimidine-4-carboxamide] the IC50 [1] was greater than 20000 nM, the Ki [2] was 2.19 nM and the IC50 [3] was 39 nM.
Work on `CN1CC[C@@](O)(C#Cc2cccc(-c3cc(-c4ccnn4C)nc(C(N)=O)n3)c2)C1=O` [Example 53, 4-[3-[2-[(3R)-3-hydroxy-1-methyl-2-oxo-pyrrolidin-3-yl]ethynyl]phenyl]-6-(2-methylpyrazol-3-yl) pyrimidine-2-carboxamide] yielded an IC50 [1] of no less than 20000 nM, a Ki [2] of 0.67 nM and an IC50 [3] of 725 nM.
`CC(C)C[C@@H]1CCCN1c1cc(C(N)=O)nc(-c2cccc(C#C[C@]3(O)CCN(C)C3=O)c2)n1` [Example 28, 2-[3-[2-[(3R)-3-hydroxy-1-methyl-2-oxo-pyrrolidin-3-yl]ethynyl]phenyl]-6-[(2S)-2-isobutylpyrrolidin-1-yl] pyrimidine-4-carboxamide] was tested, and the IC50 [1] was greater than 20000 nM, the Ki [2] was 2.38 nM and the IC50 [3] was 229 nM.
With `CN1CC[C@@](O)(C#Cc2cccc(-c3nc(C(N)=O)c4sccc4n3)c2)C1=O` [Example 37, 2-[3-[2-[(3R)-3-hydroxy-1-methyl-2-oxo-pyrrolidin-3-yl]ethynyl]phenyl]thieno[3,2-d]pyrimidine-4-carboxamide] the IC50 [1] was greater than 20000 nM, the Ki [2] was 0.12 nM and the IC50 [3] was 13.9 nM.
Compound `CC(C)c1cc(C(N)=O)nc(-c2cccc(C#C[C@]3(O)CCN(C)C3=O)c2)n1` [Example 16, 2-[3-[2-[(3R)-3-hydroxy-1-methyl-2-oxo-pyrrolidin-3-yl]ethynyl]phenyl]-6-isopropyl-pyrimidine-4-carboxamide] has an IC50 [1] greater than 20000 nM, a Ki [2] of 0.54 nM and an IC50 [3] of 191 nM.
`CCn1ncc2c(-c3cccc(C#C[C@]4(O)CCN(C)C4=O)c3)nc(C(N)=O)cc21` [Example 114, 1-ethyl-4-[3-[2-[(3R)-3-hydroxy-1-methyl-2-oxo-pyrrolidin-3-yl]ethynyl]phenyl]pyrazolo[4,3-c] pyridine-6-carboxamide] showed an IC50 [1] of no less than 2000 nM, a Ki [2] of 1.48 nM and an IC50 [3] of 211 nM.
With `CN1CC[C@@](O)(C#Cc2cccc(-c3cccc(C(N)=O)n3)c2)C1=O` [Example 1, 6-[3-[2-[(3R)-3-hydroxy-1-methyl-2-oxo-pyrrolidin-3-yl]ethynyl]phenyl]pyridine-2-carboxamide] the IC50 [1] was greater than 20000 nM and the IC50 [3] was 93.2 nM.
Work on `COc1cc(C(N)=O)nc(-c2cccc(C#C[C@]3(O)CCN(C)C3=O)c2)n1` [Example 29, 2-[3-[2-[(3R)-3-hydroxy-1-methyl-2-oxo-pyrrolidin-3-yl]ethynyl]phenyl]-6-methoxy-pyrimidine-4-carboxamide] yielded an IC50 [1] greater than 20000 nM and an IC50 [3] of 46.6 nM.
`CN1CC[C@@](O)(C#Cc2cccc(-c3cncc(C(N)=O)n3)c2)C1=O` [Example 154, 6-[3-[2-[(3R)-3-hydroxy-1-methyl-2-oxo-pyrrolidin-3-yl]ethynyl]phenyl]pyrazine-2-carboxamide] was tested, and the IC50 [1] was greater than 2000 nM and the IC50 [3] was 400 nM.
Work on `CN1CC[C@@](O)(C#Cc2cccc(-c3cc4ccccc4c(C(N)=O)n3)c2)C1=O` [Example 40, 3-[3-[2-[(3R)-3-hydroxy-1-methyl-2-oxo-pyrrolidin-3-yl]ethynyl]phenyl] isoquinoline-1-carboxamide] yielded an IC50 [1] greater than 8000 nM and an IC50 [3] of 7.8 nM.
Compound `CN1CC[C@@](O)(C#Cc2cccc(-c3ccnc(C(N)=O)n3)c2)C1=O` [Example 3, 4-[3-[2-[(3R)-3-hydroxy-1-methyl-2-oxo-pyrrolidin-3-yl]ethynyl]phenyl]pyrimidine-2-carboxamide] has an IC50 [1] greater than 20000 nM and an IC50 [3] of 674 nM.
Work on `COc1cc(C(N)=O)nc(-c2cccc(C#C[C@]3(O)CCN(C)C3=O)c2)c1F` [Example 185, 5-fluoro-6-[3-[2-[(3R)-3-hydroxy-1-methyl-2-oxo-pyrrolidin-3-yl]ethynyl]phenyl]-4-methoxy-pyridine-2-carboxamide] yielded a Ki [2] of 0.5 nM.
For `NC(=O)c1nc(-c2cccc(C#C[C@@]3(O)CCOC3=O)c2)ccc1N` (single isomer, unassigned) [Example 65], the Ki [2] was 38 nM.
`COc1cc(C(N)=O)nc(-c2cc(C#C[C@]3(O)CCN(C)C3=O)ccc2F)c1` [Example 179, 6-[2-fluoro-5-[2-[(3R)-3-hydroxy-l-methyl-2-oxo-pyrrolidin-3-yl]ethynyl]phenyl]-4-methoxy-pyridine-2-carboxamide] showed a Ki [2] of less than 0.05 nM.
Compound `CCOc1cc(C(N)=O)nc(-c2cccc(C#C[C@]3(O)CCN(C)C3=O)c2)c1` [Example 199] has a Ki [2] of 0.4 nM.
Compound `COc1cc(C(N)=O)nc(-c2cccc(C#C[C@]3(O)CCN(C)C3=O)c2)c1` [Example 90, 6-[3-[2-[(3R)-3-hydroxy-1-methyl-2-oxo-pyrrolidin-3-yl]ethynyl]phenyl]-4-methoxy-pyridine-2-carboxamide] has an IC50 [1] of no less than 20000 nM and an IC50 [3] of 16.8 nM.
With `COc1cc(C(N)=O)nc(-c2cc(C#C[C@]3(O)CCN(C)C3=O)c(F)cc2F)c1` [Example 191, 6[2,4-difluoro-5-[2-[(3R)-3-hydroxy-l-methy1-2-oxo-pyrrolidin-3-yl]ethynyl]phenyl]-4-methoxy-pyridine-2-carboxamide] the Ki [2] was less than 0.05 nM.
With `CN1CC[C@@](O)(C#Cc2cccc(-c3nc(N[C@H]4CCOC4)cc(C(N)=O)n3)c2)C1=O` (single isomer, unassigned) [Example 30] the Ki [2] was 23.2 nM.
Work on `CN1CC[C@@](O)(C#Cc2cccc(-c3ccc(C(F)F)c(C(N)=O)n3)c2)C1=O` [Example 187, 3-(difluoromethyl)-6-[3-[2-[(3R)-3-hydroxy-1-methyl-2-oxo-pyrrolidin-3-yl]ethynyl]phenyl]pyridine-2-carboxamide] yielded a Ki [2] of 0.06 nM.
`CN1CC[C@@](O)(C#Cc2cccc(-c3cc(-n4ccnc4)cc(C(N)=O)n3)c2)C1=O` [Example 182, 6-[3-[2-[(3R)-3-hydroxy-l-methyl-2-oxo-pyrrolidin-3-yl]ethynyl]phenyl]-4-imidazol-1-yl-pyridine-2-carboxamide] was tested, and the Ki [2] was 0.17 nM.
In the case of `CC(=O)N1CCN(c2cc(C(N)=O)nc(-c3cccc(C#C[C@]4(O)CCN(C)C4=O)c3)n2)CC1` [Example 7, 6-(4-acetylpiperazin-1-yl)-2-[3-[2-[(3R)-3-hydroxy-1-methyl-2-oxo-pyrrolidin-3-yl]ethynyl]phenyl]pyrimidine-4-carboxamide], the Ki [2] is reported as 1.25 nM.
With `CN1CC[C@@](O)(C#Cc2cccc(-c3ccc(N)c(C(N)=O)n3)c2)C1=O` [Example 63, 3-amino-6-[3-[2-[(3R)-3-hydroxy-1-methyl-2-oxo-pyrrolidin-3-yl]ethynyl]phenyl]pyridine-2-carboxamide] the IC50 [1] was no less than 20000 nM and the IC50 [3] was 10.7 nM.
